Laboratory results taken from patent US5556744A, “Methods and compositions for diagnosing and treating certain HIV infected patients” (The Trustees of the University of Pennsylvania, priority 1994, dated 1996).

Experiments:
[1] = system: maternal HIV+ sera (antibodies); assay: RIA / ELISA binding of maternal HIV+ sera to gp120 and gp41 peptides (Example 3); set-up: species or system human
In short: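 Maternal sera, diluted 1:50 and 1:500, were bound overnight at 4°C to peptides immobilized at 10 μg/ml (pH 9.6 carbonate) and blocked with 1% BSA. Read-out was ¹²⁵I-labelled anti-human IgG counts or HRP-TMB OD450. Signal with peptide minus without was expressed relative to seronegative serum.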

[2] = system: maternal sera (antibodies); assay: ELISA peptide-binding of maternal sera (Example 6); set-up: species or system human; conditions: for Number of Non-Transmitters which bound to peptide / Percent of Non-Transmitters which bound to peptide: N = 12; for Number of Transmitters which bound to peptide / Percent of Transmitters which bound to peptide: N = 4
In short: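 HIV-1 envelope peptides averaging 16 amino acids, covering external and transmembrane glycoprotein, were probed by ELISA. Third-trimester maternal sera, classed as transmitter or non-transmitter by child diagnosis, were each run on at least 40 peptides. Values give percent of sera binding a peptide.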

[3] = Serum No. 1, Non-Transmission Group
[4] = Serum No. 2, Non-Transmission Group
[5] = Serum No. 3, Non-Transmission Group
[6] = Serum No. 4, Transmission Group
[7] = Serum No. 5, Transmission Group
[8] = Serum No. 6, Non-Transmission Group
[9] = Serum No. 7, Non-Transmission Group
[10] = Serum No. 8, Non-Transmission Group
[11] = Serum No. 9, Non-Transmission Group
[12] = Serum No. 10, Transmission Group
[13] = Serum No. 11, Non-Transmission Group
[14] = Serum No. 12, Non-Transmission Group
[15] = Serum No. 13, Transmission Group
[16] = Serum No. 14, Transmission Group
[17] = Serum No. 15, Transmission Group
[18] = Serum No. 16, Non-Transmission Group
[19] = Serum No. 17, Non-Transmission Group
[20] = Serum No. 18, Non-Transmission Group
[21] = Serum No. 19, Transmission Group
[22] = Serum No. 20, Non-Transmission Group

Sequence | Binding of maternal HIV+ serum to peptide (sera/NHS ratio) [1, 3] | Binding of maternal HIV+ serum to peptide (sera/NHS ratio) [1, 4] | Binding of maternal HIV+ serum to peptide (sera/NHS ratio) [1, 5] | Binding of maternal HIV+ serum to peptide (sera/NHS ratio) [1, 6] | Binding of maternal HIV+ serum to peptide (sera/NHS ratio) [1, 7] | Binding of maternal HIV+ serum to peptide (sera/NHS ratio) [1, 8] | Binding of maternal HIV+ serum to peptide (sera/NHS ratio) [1, 9] | Binding of maternal HIV+ serum to peptide (sera/NHS ratio) [1, 10] | Binding of maternal HIV+ serum to peptide (sera/NHS ratio) [1, 11] | Binding of maternal HIV+ serum to peptide (sera/NHS ratio) [1, 12] | Binding of maternal HIV+ serum to peptide (sera/NHS ratio) [1, 13] | Binding of maternal HIV+ serum to peptide (sera/NHS ratio) [1, 14] | Binding of maternal HIV+ serum to peptide (sera/NHS ratio) [1, 15] | Binding of maternal HIV+ serum to peptide (sera/NHS ratio) [1, 16] | Binding of maternal HIV+ serum to peptide (sera/NHS ratio) [1, 17] | Binding of maternal HIV+ serum to peptide (sera/NHS ratio) [1, 18] | Binding of maternal HIV+ serum to peptide (sera/NHS ratio) [1, 19] | Binding of maternal HIV+ serum to peptide (sera/NHS ratio) [1, 20] | Binding of maternal HIV+ serum to peptide (sera/NHS ratio) [1, 21] | Binding of maternal HIV+ serum to peptide (sera/NHS ratio) [1, 22] | also measured
QNNLLRAIEAQQHLLQLTVWGI [Peptide 35] | - (specific OD450 or cpm of sera sample binding to peptide divided by the specific OD450 or cpm of NHS sample binding to peptide, which value is less than 2) | - (specific OD450 or cpm of sera sample binding to peptide divided by the specific OD450 or cpm of NHS sample binding to peptide, which value is less than 2) | + (which value is between 2 to 3) | - (specific OD450 or cpm of sera sample binding to peptide divided by the specific OD450 or cpm of NHS sample binding to peptide, which value is less than 2) | - (specific OD450 or cpm of sera sample binding to peptide divided by the specific OD450 or cpm of NHS sample binding to peptide, which value is less than 2) | - (specific OD450 or cpm of sera sample binding to peptide divided by the specific OD450 or cpm of NHS sample binding to peptide, which value is less than 2) | + (which value is between 2 to 3) | - (specific OD450 or cpm of sera sample binding to peptide divided by the specific OD450 or cpm of NHS sample binding to peptide, which value is less than 2) | - (specific OD450 or cpm of sera sample binding to peptide divided by the specific OD450 or cpm of NHS sample binding to peptide, which value is less than 2) | - (specific OD450 or cpm of sera sample binding to peptide divided by the specific OD450 or cpm of NHS sample binding to peptide, which value is less than 2) | - (specific OD450 or cpm of sera sample binding to peptide divided by the specific OD450 or cpm of NHS sample binding to peptide, which value is less than 2) | - (specific OD450 or cpm of sera sample binding to peptide divided by the specific OD450 or cpm of NHS sample binding to peptide, which value is less than 2) | - (specific OD450 or cpm of sera sample binding to peptide divided by the specific OD450 or cpm of NHS sample binding to peptide, which value is less than 2) | - (specific OD450 or cpm of sera sample binding to peptide divided by the specific OD450 or cpm of NHS sample binding to peptide, which value is less than 2) | - (specific OD450 or cpm of sera sample binding to peptide divided by the specific OD450 or cpm of NHS sample binding to peptide, which value is less than 2) | - (specific OD450 or cpm of sera sample binding to peptide divided by the specific OD450 or cpm of NHS sample binding to peptide, which value is less than 2) | - (specific OD450 or cpm of sera sample binding to peptide divided by the specific OD450 or cpm of NHS sample binding to peptide, which value is less than 2) | - (specific OD450 or cpm of sera sample binding to peptide divided by the specific OD450 or cpm of NHS sample binding to peptide, which value is less than 2) | - (specific OD450 or cpm of sera sample binding to peptide divided by the specific OD450 or cpm of NHS sample binding to peptide, which value is less than 2) | - (specific OD450 or cpm of sera sample binding to peptide divided by the specific OD450 or cpm of NHS sample binding to peptide, which value is less than 2) | Number of Non-Transmitters which bound to peptide [2]: 0; Percent of Non-Transmitters which bound to peptide [2]: 0%; Number of Transmitters which bound to peptide [2]: 0; Percent of Transmitters which bound to peptide [2]: 0%
RIQRGPGRAFVTIGK [p18p] | - (specific OD450 or cpm of sera sample binding to peptide divided by the specific OD450 or cpm of NHS sample binding to peptide, which value is less than 2) | - (specific OD450 or cpm of sera sample binding to peptide divided by the specific OD450 or cpm of NHS sample binding to peptide, which value is less than 2) | - (specific OD450 or cpm of sera sample binding to peptide divided by the specific OD450 or cpm of NHS sample binding to peptide, which value is less than 2) | - (specific OD450 or cpm of sera sample binding to peptide divided by the specific OD450 or cpm of NHS sample binding to peptide, which value is less than 2) | - (specific OD450 or cpm of sera sample binding to peptide divided by the specific OD450 or cpm of NHS sample binding to peptide, which value is less than 2) | - (specific OD450 or cpm of sera sample binding to peptide divided by the specific OD450 or cpm of NHS sample binding to peptide, which value is less than 2) | - (specific OD450 or cpm of sera sample binding to peptide divided by the specific OD450 or cpm of NHS sample binding to peptide, which value is less than 2) | - (specific OD450 or cpm of sera sample binding to peptide divided by the specific OD450 or cpm of NHS sample binding to peptide, which value is less than 2) | - (specific OD450 or cpm of sera sample binding to peptide divided by the specific OD450 or cpm of NHS sample binding to peptide, which value is less than 2) | - (specific OD450 or cpm of sera sample binding to peptide divided by the specific OD450 or cpm of NHS sample binding to peptide, which value is less than 2) | - (specific OD450 or cpm of sera sample binding to peptide divided by the specific OD450 or cpm of NHS sample binding to peptide, which value is less than 2) | ++ (which value is greater than 3) | ++ (which value is greater than 3) | ++ (which value is greater than 3) | ++ (which value is greater than 3) | + (which value is between 2 to 3) | ++ (which value is greater than 3) | - (specific OD450 or cpm of sera sample binding to peptide divided by the specific OD450 or cpm of NHS sample binding to peptide, which value is less than 2) | - (specific OD450 or cpm of sera sample binding to peptide divided by the specific OD450 or cpm of NHS sample binding to peptide, which value is less than 2) | + (which value is between 2 to 3) | Percentage of sera samples demonstrating binding to peptide, non-transmitter ([1]; Non-transmitter group, n = 13): 30.7%; Percentage of sera samples demonstrating binding to peptide, transmitter ([1]; Transmitter / transmission group, n = 7): 42.8%; Percent of the maternal serum samples that bound to the peptide ([1]; all 20 samples): 35%; Number of Non-Transmitters which bound to peptide [2]: 3; Percent of Non-Transmitters which bound to peptide [2]: 25%; Number of Transmitters which bound to peptide [2]: 0; Percent of Transmitters which bound to peptide [2]: 0%
